Source: ChEMBL document CHEMBL1139457, “Pyrrolo[1,3]benzothiazepine-based serotonin and dopamine receptor antagonists. Molecular modeling, further structure-activity relationship studies, and identification of novel atypical antipsychotic agents” (J Med Chem, 2004)
Where “and” joins values, the source holds several entries; their conditions need not be identical. Equal values may be shown once. Blank lines part the entries; values can stand above or below the molecule they belong to. Calls of active or inactive are those of the source. The rule behind the calls is not given here.

What was measured:
[1] = molecular target: T1, D(3) dopamine receptor (Rattus norvegicus, UniProt P19020); format: cell-based; settings: sf9
Description: (§1) In vitro binding affinity towards Dopamine receptor D3 in Sf9 cell membranes using [3H]7-OH-DPAT as radioligand

[2] = molecular target: D(2) dopamine receptor (Rattus norvegicus, UniProt P61169); parameters: species or system Tissue
[3] = molecular target: T2, D(1A) dopamine receptor (Rattus norvegicus, UniProt P18901); parameters: species or system Tissue
[4] = molecular target: T3, 5-hydroxytryptamine receptor 2A (Rattus norvegicus, UniProt P14842); parameters: species or system Tissue
[5] = molecular target: T2, D(1A) dopamine receptor; parameters: species or system Tissue; remark: listed apart in the source
Description: In vitro binding affinity towards Dopamine receptor D1 in rat tissue homogenate using [3H]-SCH- 23390 as radioligand

[6] = molecular target: T3, 5-hydroxytryptamine receptor 2A
Description: In vitro binding affinity towards 5-hydroxytryptamine 2A receptor in rat tissue homogenate using [3H]ketanserin as radioligand

[7] = molecular target: T1, D(3) dopamine receptor; experiment: biochemical; format: cell-based, Sf9
Description: as §1

[8] = molecular target: T4, Adrenergic receptor alpha-1 (Rattus norvegicus, UniProt P15823+P23944+P43140); format: tissue-based, Frontal cortex
T4 sequence (P15823 whole entry): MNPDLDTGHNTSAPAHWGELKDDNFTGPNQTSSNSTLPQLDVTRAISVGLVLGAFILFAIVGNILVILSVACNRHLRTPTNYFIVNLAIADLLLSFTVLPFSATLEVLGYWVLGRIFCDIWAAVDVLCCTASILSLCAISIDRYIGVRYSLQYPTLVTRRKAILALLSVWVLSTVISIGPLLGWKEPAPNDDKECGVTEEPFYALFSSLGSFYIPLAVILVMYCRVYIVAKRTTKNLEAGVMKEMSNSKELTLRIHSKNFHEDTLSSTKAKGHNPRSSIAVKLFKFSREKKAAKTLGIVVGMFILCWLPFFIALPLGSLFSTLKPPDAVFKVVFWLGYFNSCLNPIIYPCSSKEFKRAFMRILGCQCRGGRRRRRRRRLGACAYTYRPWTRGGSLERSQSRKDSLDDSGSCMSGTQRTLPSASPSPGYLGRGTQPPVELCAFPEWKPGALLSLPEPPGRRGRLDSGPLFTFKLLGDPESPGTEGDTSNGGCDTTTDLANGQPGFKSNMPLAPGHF
T4 sequence (P23944 whole entry): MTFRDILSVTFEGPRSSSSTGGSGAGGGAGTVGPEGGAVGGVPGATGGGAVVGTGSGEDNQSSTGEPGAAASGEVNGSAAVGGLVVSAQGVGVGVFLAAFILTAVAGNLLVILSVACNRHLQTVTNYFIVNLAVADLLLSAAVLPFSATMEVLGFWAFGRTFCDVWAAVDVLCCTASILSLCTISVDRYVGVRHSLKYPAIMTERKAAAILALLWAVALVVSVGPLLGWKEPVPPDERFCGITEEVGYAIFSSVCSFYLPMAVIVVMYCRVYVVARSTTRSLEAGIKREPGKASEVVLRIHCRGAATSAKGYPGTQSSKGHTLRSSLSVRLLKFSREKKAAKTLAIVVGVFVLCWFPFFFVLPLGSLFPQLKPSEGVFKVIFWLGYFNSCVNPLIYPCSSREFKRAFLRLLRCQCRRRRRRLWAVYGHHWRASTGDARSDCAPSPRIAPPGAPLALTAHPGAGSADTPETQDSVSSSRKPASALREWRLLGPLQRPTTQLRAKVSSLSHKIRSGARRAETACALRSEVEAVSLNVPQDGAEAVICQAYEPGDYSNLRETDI
T4 sequence (P43140 whole entry): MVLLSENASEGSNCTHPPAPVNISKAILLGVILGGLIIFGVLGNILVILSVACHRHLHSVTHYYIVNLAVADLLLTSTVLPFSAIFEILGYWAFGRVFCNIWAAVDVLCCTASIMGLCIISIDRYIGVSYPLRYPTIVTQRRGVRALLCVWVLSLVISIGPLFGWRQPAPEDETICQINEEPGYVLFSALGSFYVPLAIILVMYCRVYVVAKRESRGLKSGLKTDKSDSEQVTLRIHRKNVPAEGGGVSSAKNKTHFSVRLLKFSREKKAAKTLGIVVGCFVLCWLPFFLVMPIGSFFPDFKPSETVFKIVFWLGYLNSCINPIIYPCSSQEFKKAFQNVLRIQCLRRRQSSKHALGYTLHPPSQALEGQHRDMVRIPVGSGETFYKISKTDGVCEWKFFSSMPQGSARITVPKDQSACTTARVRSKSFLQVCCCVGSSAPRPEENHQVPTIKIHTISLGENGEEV
Description: In vitro binding affinity towards alpha-1 adrenergic receptor in rat frontal cortex homogenate using of [3H]prazosin as radioligand

[9] = species: Mus musculus; experiment: animal or person; format: functional; settings: po
Description: In vivo inhibitory activity tested in apomorphine climbing mice after oral administration

[10] = molecular target: T5, Adrenergic receptor alpha-2 (Rattus norvegicus, UniProt P22086+P19328+P22909); format: tissue-based, Frontal cortex
T5 sequence (P22086 whole entry): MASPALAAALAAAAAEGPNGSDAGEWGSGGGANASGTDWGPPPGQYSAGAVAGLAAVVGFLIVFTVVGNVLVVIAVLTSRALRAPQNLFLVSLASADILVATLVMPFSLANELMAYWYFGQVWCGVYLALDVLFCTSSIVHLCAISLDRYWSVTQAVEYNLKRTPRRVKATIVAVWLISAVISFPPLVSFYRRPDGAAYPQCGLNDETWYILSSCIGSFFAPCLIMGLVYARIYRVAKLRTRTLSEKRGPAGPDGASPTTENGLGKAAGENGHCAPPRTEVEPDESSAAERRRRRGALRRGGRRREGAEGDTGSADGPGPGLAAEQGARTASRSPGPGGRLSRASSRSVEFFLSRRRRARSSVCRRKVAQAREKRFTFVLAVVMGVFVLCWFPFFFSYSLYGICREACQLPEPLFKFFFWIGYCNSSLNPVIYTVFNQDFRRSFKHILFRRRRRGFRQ
T5 sequence (P19328 whole entry): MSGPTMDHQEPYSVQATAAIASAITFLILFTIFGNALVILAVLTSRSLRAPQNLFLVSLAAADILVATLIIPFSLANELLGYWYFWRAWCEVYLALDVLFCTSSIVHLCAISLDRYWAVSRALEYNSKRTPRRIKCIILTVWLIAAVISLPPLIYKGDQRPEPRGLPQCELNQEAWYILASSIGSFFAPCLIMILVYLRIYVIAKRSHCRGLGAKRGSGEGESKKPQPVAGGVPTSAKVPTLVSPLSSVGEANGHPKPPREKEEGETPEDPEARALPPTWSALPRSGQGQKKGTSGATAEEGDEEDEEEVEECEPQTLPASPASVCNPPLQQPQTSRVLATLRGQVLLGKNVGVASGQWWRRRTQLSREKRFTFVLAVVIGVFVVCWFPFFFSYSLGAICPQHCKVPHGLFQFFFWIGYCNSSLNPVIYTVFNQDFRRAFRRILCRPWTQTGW
T5 sequence (P22909 whole entry): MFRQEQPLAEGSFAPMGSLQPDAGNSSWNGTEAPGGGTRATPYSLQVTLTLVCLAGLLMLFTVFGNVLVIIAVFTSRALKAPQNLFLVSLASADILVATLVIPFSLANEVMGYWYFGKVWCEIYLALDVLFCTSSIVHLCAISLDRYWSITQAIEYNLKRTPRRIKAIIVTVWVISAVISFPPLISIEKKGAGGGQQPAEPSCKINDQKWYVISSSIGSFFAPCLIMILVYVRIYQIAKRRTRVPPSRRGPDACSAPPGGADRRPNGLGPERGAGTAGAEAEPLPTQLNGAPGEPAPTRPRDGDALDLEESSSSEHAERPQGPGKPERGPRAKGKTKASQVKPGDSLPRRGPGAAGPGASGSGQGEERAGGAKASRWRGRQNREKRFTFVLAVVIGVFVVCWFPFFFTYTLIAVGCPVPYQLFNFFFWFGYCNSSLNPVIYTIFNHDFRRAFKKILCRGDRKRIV
Description: In vitro binding affinity towards alpha-2 adrenergic receptor in rat frontal cortex homogenate using of [3H]clonidine as radioligand

[11] = species: Rattus norvegicus; format: functional; settings: dose 0.3 mg/kg, route intraperitoneal
Description: Inhibitory activity tested in rats after intraperitoneal administration at 0.3 mg/kg with saline

[12] = species: Rattus norvegicus; experiment: animal or person; format: functional; settings: po
Description: In vivo inhibition against catalepsy in rats after oral administration evaluated by metal bar

[13] = molecular target: T6, Muscarinic acetylcholine receptor M1 (Rattus norvegicus, UniProt P08482); experiment: biochemical; format: tissue-based, Frontal cortex
T6 sequence (P08482 whole entry): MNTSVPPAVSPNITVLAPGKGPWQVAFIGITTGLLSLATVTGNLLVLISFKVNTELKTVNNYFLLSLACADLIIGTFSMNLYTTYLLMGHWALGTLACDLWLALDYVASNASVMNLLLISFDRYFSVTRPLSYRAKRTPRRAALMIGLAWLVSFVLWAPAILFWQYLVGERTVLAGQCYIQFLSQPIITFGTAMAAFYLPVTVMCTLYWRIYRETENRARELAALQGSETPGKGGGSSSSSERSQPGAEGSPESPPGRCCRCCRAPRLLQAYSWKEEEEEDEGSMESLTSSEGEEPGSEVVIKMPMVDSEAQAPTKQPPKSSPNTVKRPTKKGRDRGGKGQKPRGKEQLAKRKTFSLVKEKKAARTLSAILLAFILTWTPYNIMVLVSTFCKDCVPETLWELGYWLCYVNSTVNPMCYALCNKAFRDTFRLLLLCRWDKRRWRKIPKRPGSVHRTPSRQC
Description: In vitro binding affinity towards M1 receptor of rat frontal cortex homogenate by using radioligand [3H]QNB

[14] = species: Rattus norvegicus; format: functional
Description: Minimal inhibitory activity tested in rats after intraperitoneal administration

[15] = species: Rattus norvegicus; experiment: animal or person; format: functional; settings: po; remark: listed apart in the source
Description: In vivo inhibition of spontaneous locomotory activity tested in rats after oral administration

[16] = molecular target: Histamine H1 receptor (Rattus norvegicus, UniProt P31390); experiment: biochemical; format: tissue-based, Frontal cortex
Description: In vitro binding affinity towards Histamine H1 receptor of rat frontal cortex homogenate by using radioligand [3H]pyrilamine

[17] = molecular target: 5-hydroxytryptamine receptor 2A (Homo sapiens, UniProt P28223)
Description: In vitro binding affinity towards 5-hydroxytryptamine 2A receptor in human using [3H]ketanserin as radioligand

[18] = species: Mus musculus; experiment: animal or person; format: functional; settings: po; remark: listed apart in the source
Description: In vivo inhibitory activity against 5-MeO-DMT-Induced Head-Twitches in mouse after oral administration

[19] = species: Rattus norvegicus; experiment: animal or person; format: functional; settings: po; remark: listed apart in the source
Description: In vivo inhibition against MK-801 induced hyperactivity in rats after oral administration

[20] = species: Rattus norvegicus; experiment: animal or person; format: functional; settings: po; remark: listed apart in the source
Description: In vivo inhibition against conditioned avoidance response in rats after oral administration

[21] = species: Mus musculus

T3 sequence (P14842 whole entry): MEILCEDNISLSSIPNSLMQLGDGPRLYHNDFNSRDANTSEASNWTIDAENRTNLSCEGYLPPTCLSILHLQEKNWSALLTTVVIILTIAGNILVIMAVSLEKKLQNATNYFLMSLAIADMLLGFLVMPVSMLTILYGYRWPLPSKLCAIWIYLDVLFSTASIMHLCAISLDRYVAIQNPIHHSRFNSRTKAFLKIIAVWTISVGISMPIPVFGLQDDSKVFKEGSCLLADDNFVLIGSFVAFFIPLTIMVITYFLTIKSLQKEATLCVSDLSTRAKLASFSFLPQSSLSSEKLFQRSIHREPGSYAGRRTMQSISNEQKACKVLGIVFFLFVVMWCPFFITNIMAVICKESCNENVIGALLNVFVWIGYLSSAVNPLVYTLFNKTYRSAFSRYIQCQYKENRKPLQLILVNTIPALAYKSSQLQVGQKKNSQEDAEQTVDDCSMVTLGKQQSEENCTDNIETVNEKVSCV
T1 sequence (P19020 whole entry): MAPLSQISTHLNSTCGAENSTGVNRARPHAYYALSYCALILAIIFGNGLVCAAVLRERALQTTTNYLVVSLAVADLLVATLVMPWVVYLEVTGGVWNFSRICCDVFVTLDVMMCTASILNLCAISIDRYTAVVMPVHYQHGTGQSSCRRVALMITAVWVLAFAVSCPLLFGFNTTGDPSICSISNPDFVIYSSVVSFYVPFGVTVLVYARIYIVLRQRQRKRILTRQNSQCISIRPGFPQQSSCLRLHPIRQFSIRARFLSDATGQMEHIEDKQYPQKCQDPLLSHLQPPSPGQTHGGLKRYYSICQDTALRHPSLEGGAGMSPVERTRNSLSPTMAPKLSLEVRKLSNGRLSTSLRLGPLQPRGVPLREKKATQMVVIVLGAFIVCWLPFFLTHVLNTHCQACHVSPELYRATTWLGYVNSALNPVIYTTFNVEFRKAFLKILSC
Chain of D(2) dopamine receptor (P61169 whole entry): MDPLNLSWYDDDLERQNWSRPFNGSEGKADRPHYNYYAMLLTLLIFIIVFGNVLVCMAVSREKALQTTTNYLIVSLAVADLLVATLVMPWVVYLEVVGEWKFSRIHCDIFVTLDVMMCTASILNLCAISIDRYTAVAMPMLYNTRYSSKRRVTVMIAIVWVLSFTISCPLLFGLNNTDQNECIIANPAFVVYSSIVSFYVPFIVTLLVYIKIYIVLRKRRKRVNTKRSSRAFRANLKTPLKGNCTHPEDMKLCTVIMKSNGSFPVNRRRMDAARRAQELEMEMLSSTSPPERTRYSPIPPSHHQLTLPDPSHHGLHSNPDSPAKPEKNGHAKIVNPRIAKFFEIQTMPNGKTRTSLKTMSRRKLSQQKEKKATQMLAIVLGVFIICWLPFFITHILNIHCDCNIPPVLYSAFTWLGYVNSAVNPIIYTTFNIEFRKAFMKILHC
T2 sequence (P18901 whole entry): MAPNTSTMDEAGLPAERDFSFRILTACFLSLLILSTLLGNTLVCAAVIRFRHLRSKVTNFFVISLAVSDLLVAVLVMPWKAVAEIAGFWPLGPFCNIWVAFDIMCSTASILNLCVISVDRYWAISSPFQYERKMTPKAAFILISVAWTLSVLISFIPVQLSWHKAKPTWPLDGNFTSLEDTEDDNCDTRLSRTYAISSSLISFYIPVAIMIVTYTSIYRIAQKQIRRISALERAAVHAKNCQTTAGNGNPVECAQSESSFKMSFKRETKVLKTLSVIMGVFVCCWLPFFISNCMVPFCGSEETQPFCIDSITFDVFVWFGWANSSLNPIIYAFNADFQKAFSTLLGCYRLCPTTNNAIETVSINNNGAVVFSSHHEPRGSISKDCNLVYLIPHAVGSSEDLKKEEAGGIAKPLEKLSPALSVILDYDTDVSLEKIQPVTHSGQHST
Chain of Histamine H1 receptor (P31390 whole entry): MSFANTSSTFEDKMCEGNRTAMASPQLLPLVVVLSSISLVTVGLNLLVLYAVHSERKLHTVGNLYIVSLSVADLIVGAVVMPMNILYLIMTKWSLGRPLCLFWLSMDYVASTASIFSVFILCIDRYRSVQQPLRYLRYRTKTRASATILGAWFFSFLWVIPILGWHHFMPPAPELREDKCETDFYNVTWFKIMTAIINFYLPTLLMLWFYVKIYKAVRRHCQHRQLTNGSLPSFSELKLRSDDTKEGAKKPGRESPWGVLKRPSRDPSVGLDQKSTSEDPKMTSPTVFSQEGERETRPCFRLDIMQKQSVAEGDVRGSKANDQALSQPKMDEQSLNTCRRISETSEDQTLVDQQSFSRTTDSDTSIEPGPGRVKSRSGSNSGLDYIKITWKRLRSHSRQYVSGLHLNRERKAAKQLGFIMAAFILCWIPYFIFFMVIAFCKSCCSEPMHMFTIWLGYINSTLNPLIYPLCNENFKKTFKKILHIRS
Chain of 5-hydroxytryptamine receptor 2A (Homo sapiens, UniProt P28223) (P28223 whole entry): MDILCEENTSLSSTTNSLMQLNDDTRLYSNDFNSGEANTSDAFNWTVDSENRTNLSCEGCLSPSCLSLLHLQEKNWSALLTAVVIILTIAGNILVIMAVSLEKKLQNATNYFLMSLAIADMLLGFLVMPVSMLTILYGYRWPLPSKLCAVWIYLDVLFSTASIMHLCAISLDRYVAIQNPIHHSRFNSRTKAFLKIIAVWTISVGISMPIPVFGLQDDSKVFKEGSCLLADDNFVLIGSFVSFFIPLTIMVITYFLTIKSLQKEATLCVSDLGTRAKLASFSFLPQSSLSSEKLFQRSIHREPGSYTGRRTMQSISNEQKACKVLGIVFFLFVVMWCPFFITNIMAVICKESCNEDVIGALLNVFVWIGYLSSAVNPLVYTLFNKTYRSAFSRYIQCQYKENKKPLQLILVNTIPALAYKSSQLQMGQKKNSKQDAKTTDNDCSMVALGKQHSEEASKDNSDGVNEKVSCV

Ki [5]: 0.00587 µM
Ki [6]: 0.0043 µM
Ki [7]: 0.0043 µM
Structure (SMILES): CN1CCCN(C2=Cn3cccc3Sc3ccc(Cl)cc32)CC1

Ki [8]: 0.0005 µM
Ki [10]: 1.02 µM
Ki [13]: 2.07 µM
Ki [16]: 0.0027 µM
Ki [17]: 0.0011 µM
Structure (SMILES): CN1CCN(C2=Cn3cccc3Sc3ccccc32)CC1
ED50 [9]: 1.64 mg/kg and 5.5 µmol/kg
Correct responses [11]: 80.1% and 81.5%
ED50 [12]: > 100 mg/kg and > 336 µmol/kg
Min ID [14]: 1 µM/kg
ED50 [15]: 0.51 mg/kg and 1.71 µmol/kg
ED50 [18]: 1.99 mg/kg and 6.7 µmol/kg
ED50 [19]: 1.1 mg/kg and 3.69 µmol/kg
ED50 [20]: 1.1 mg/kg and 3.7 µmol/kg

Ki [8]: 0.0042 µM
Ki [13]: 2.3 µM
Ki [16]: 0.0027 µM
Structure (SMILES): Cc1ccc2n1C=C(N1CCN(C)CC1)c1ccccc1S2

Ki [5]: 0.0034 µM
Ki [6]: 0.00083 µM
Ki [7]: 0.00025 µM
Structure (SMILES): CN1CCN(C2=Cn3cccc3Sc3ccc(Br)cc32)CC1

More lines, now with the values behind:

Structure (SMILES): CN1CCN(C2Cn3c(CO)ccc3Sc3ccc(Cl)cc32)CC1 (configuration not stated)
Ki [1]: Not Active
Ki [2]: Not Active
Ki [3]: Not Active
Ki [4]: Not Active

Structure (SMILES): COCc1ccc2n1CC(N1CCN(C)CC1)c1cc(Cl)ccc1S2 (configuration not stated)
Ki [5]: > 1000 µM
Ki [6]: 0.405 µM
Ki [7]: 0.316 µM

Structure (SMILES): O=C1NCCN1CCN1CCN(C2Cn3cccc3Sc3ccc(Cl)cc32)CC1 (configuration not stated)
Ki [5]: 1.62 µM
Ki [6]: 0.074 µM
Ki [7]: 0.066 µM

Structure (SMILES): CN1CCN(C2=C(C=O)n3c(C=O)ccc3Sc3ccccc32)CC1
Ki [6]: 2.3 µM
Ki [2]: Not Active
Ki [3]: Not Active
Ki [7]: > 1 µM

Structure (SMILES): CN1CCN([C@@H]2Cn3cccc3Sc3ccc(Cl)cc32)CC1
ED50 [21]: inactive
ED50 [12]: 115 µmol/kg
ED50 [18]: 14.3 µmol/kg

Structure (SMILES): CC(C)OCc1ccc2n1C=C(N1CCN(C)CC1)c1ccccc1S2
Ki [5]: 7.6 µM
Ki [6]: 0.217 µM
Ki [7]: 0.278 µM

Structure (SMILES): CN1CCN(C2=Cn3c(C=O)ccc3Sc3ccccc32)CC1
Ki [5]: 4.28 µM
Ki [6]: 0.02 µM
Ki [7]: 0.102 µM

Structure (SMILES): CN1CCN(C2=Cn3c(/C=N/O)ccc3Sc3ccccc32)CC1
Ki [6]: 1.98 µM
Ki [2]: Not Active
Ki [3]: Not Active
Ki [7]: 4.26 µM

Structure (SMILES): CN1CCN(C2=Cn3c(CO)ccc3Sc3ccccc32)CC1
Ki [5]: 1.74 µM
Ki [6]: 0.019 µM
Ki [7]: 0.113 µM
